# Reference: patent US20240368139A1, “NOVEL MODULATORS OF EHMT1 AND EHMT2 AND THERAPEUTIC USE THEREOF” (Tango Therapeutics, Inc., priority 2021, published 2024)
# Target: T1, human EHMT1 982-1266 (Homo sapiens, UniProt Q9H9B1)
# T1 sequence (Q9H9B1 982-1266): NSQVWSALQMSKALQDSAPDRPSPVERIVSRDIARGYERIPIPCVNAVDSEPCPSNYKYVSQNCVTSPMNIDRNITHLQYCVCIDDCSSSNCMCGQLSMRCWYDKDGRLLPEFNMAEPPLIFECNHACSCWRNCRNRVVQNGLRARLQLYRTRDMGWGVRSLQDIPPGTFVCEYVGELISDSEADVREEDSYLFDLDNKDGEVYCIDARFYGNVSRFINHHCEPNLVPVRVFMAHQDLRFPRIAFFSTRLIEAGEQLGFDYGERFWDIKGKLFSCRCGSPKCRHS
# Assay: EHMT1 enzyme assay on histone peptide substrate (3H-SAM SPA)
# Settings: EHMT1 IC50, recombinant human EHMT1 982-1266, histone peptide substrate
row,Compound,IC50
1,"CNc1cc(C)nc(Nc2cc3c(c(C4=CCNC(C)CC4)c2Cl)OCO3)n1 (single isomer, unassigned) [Compound 356]",< 100 nM
2,"CNc1cc(C)nc(Nc2cc3c(c(C4=CCNCC(O)C4)c2C)OCCC3)n1 (single isomer, unassigned) [Compound 360]",100 to 500 nM
3,"CNc1cc(C)nc(Nc2cc3c(c(C4=CCNC(C)CC4)c2Cl)OCCC3)n1 (single isomer, unassigned) [Compound 365]",100 to 500 nM
4,"CNc1cc(C)nc(Nc2cc3c(c(C4=CCNCC(OC)C4)c2F)OCC3)n1 (single isomer, unassigned) [Compound 366-a]",500 to 2000 nM
5,"CNc1cc(C)nc(Nc2cc3c(c(C4=CCNCC(OC)C4)c2F)OCC3)n1 (single isomer, unassigned) [Compound 366]",100 to 500 nM
6,"CNc1cc(C)nc(Nc2cc3c(c(C4=CCNC(C)CC4)c2C)OCCO3)n1 (single isomer, unassigned) [Compound 368]",100 to 500 nM
7,"CNc1cc(C)nc(Nc2cc3c(c(C4=CCNC(CF)CC4)c2F)OCC3)n1 (single isomer, unassigned) [Compound 371-a]",> 2000 nM
8,[2H]Cc1cc(NC([2H])([2H])[2H])nc(Nc2cc3c(c(C4=CCNCCC4)c2)OCCO3)n1 [Compound 216],< 100 nM
9,CNc1cc(C)nc(Nc2cc3c(c([C@H]4CC[C@H](N)CC4)c2)OCCO3)n1 [Compound 337],100 to 500 nM

# The remaining lines, values ahead:
row,IC50,Compound
1,< 100 nM,"CNc1cc(C)nc(Nc2cc3c(c(C4=CCNC(CF)CC4)c2F)OCC3)n1 (single isomer, unassigned) [Compound 371]"
2,500 to 2000 nM,"CNc1cc(C)nc(Nc2cc3c(c(C4=CCNC(C)CC4)c2Cl)OCC3)n1 (single isomer, unassigned) [Compound 374-a]"
3,< 100 nM,"CNc1cc(C)nc(Nc2cc3c(c(C4=CCN(C)CC(O)C4)c2C)OCC3)n1 (single isomer, unassigned) [Compound 379]"
4,100 to 500 nM,"CNc1cc(C)nc(Nc2cc3c(c(C4=CCNC(C)CC4)c2F)OCO3)n1 (single isomer, unassigned) [Compound 380]"
5,500 to 2000 nM,"CNc1cc(C)nc(Nc2cc3c(c(C4=CCNC(C)CC4)c2C)OCC3)n1 (single isomer, unassigned) [Compound 383-a]"
6,> 2000 nM,"CNc1cc(C)nc(Nc2cc3c(c(C4=CCNC(C)CC4)c2C)OCCC3)n1 (single isomer, unassigned) [Compound 385-a]"
7,< 100 nM,"CNc1cc(C)nc(Nc2cc3c(c(C4=CCNC(C)CC4)c2C)OCCC3)n1 (single isomer, unassigned) [Compound 385]"
8,< 100 nM,"CNc1cc(C)nc(Nc2cc3c(c(C4=CCN(C)CC(O)C4)c2C)OCCC3)n1 (single isomer, unassigned) [Compound 418]"
9,500 to 2000 nM,"CNc1cc(C)nc(Nc2cc3c(c(C4=CCN(C)CC(O)C4)c2C)OCCC3)n1 (single isomer, unassigned) [Compound 419]"
10,500 to 2000 nM,"CNc1cc(C)nc(Nc2cc3c(c(C4=CCC(N)CC4)c2F)OCC3)n1 (single isomer, unassigned) [Compound 436]"

# Target: T2, human EHMT2 913-1193 (Homo sapiens, UniProt Q96KQ7)
# T2 sequence (Q96KQ7 913-1193): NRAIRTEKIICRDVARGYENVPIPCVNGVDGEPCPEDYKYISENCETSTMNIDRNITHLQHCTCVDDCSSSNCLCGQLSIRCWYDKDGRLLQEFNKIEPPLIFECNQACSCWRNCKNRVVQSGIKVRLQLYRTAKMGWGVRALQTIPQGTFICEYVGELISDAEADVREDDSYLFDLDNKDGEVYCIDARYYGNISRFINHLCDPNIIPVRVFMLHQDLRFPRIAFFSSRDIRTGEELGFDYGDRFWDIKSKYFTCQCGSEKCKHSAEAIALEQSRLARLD
# Assay: EHMT2 enzyme assay on histone peptide substrate (3H-SAM SPA)
# Settings: EHMT2 IC50, recombinant human EHMT2 913-1193, histone peptide substrate
row,Compound,IC50
1,"CNc1cc(C)nc(Nc2cc3c(c(C4=CCNC(C)CC4)c2Cl)OCO3)n1 (single isomer, unassigned) [Compound 356]",< 100 nM
2,"CNc1cc(C)nc(Nc2cc3c(c(C4=CCNCC(O)C4)c2C)OCCC3)n1 (single isomer, unassigned) [Compound 360]",500 to 2000 nM
3,"CNc1cc(C)nc(Nc2cc3c(c(C4=CCNC(C)CC4)c2Cl)OCCC3)n1 (single isomer, unassigned) [Compound 365]",500 to 2000 nM
4,"CNc1cc(C)nc(Nc2cc3c(c(C4=CCNCC(OC)C4)c2F)OCC3)n1 (single isomer, unassigned) [Compound 366-a]",> 2000 nM
5,"CNc1cc(C)nc(Nc2cc3c(c(C4=CCNCC(OC)C4)c2F)OCC3)n1 (single isomer, unassigned) [Compound 366]",500 to 2000 nM
6,"CNc1cc(C)nc(Nc2cc3c(c(C4=CCNC(C)CC4)c2C)OCCO3)n1 (single isomer, unassigned) [Compound 368]",100 to 500 nM
7,"CNc1cc(C)nc(Nc2cc3c(c(C4=CCNC(CF)CC4)c2F)OCC3)n1 (single isomer, unassigned) [Compound 371-a]",> 2000 nM
8,[2H]Cc1cc(NC([2H])([2H])[2H])nc(Nc2cc3c(c(C4=CCNCCC4)c2)OCCO3)n1 [Compound 216],< 100 nM
9,CNc1cc(C)nc(Nc2cc3c(c([C@H]4CC[C@H](N)CC4)c2)OCCO3)n1 [Compound 337],> 2000 nM

# Now from value to compound:
row,IC50,Compound
1,< 100 nM,"CNc1cc(C)nc(Nc2cc3c(c(C4=CCNC(CF)CC4)c2F)OCC3)n1 (single isomer, unassigned) [Compound 371]"
2,500 to 2000 nM,"CNc1cc(C)nc(Nc2cc3c(c(C4=CCNC(C)CC4)c2Cl)OCC3)n1 (single isomer, unassigned) [Compound 374-a]"
3,< 100 nM,"CNc1cc(C)nc(Nc2cc3c(c(C4=CCN(C)CC(O)C4)c2C)OCC3)n1 (single isomer, unassigned) [Compound 379]"
4,500 to 2000 nM,"CNc1cc(C)nc(Nc2cc3c(c(C4=CCNC(C)CC4)c2F)OCO3)n1 (single isomer, unassigned) [Compound 380]"
5,500 to 2000 nM,"CNc1cc(C)nc(Nc2cc3c(c(C4=CCNC(C)CC4)c2C)OCC3)n1 (single isomer, unassigned) [Compound 383-a]"
6,> 2000 nM,"CNc1cc(C)nc(Nc2cc3c(c(C4=CCNC(C)CC4)c2C)OCCC3)n1 (single isomer, unassigned) [Compound 385-a]"
7,100 to 500 nM,"CNc1cc(C)nc(Nc2cc3c(c(C4=CCNC(C)CC4)c2C)OCCC3)n1 (single isomer, unassigned) [Compound 385]"
8,100 to 500 nM,"CNc1cc(C)nc(Nc2cc3c(c(C4=CCN(C)CC(O)C4)c2C)OCCC3)n1 (single isomer, unassigned) [Compound 418]"
9,> 2000 nM,"CNc1cc(C)nc(Nc2cc3c(c(C4=CCN(C)CC(O)C4)c2C)OCCC3)n1 (single isomer, unassigned) [Compound 419]"
10,> 2000 nM,"CNc1cc(C)nc(Nc2cc3c(c(C4=CCC(N)CC4)c2F)OCC3)n1 (single isomer, unassigned) [Compound 436]"
